In patent publication US20240287037A1, “CYCLOALKYL COMPOUNDS AND PHARMACEUTICAL COMPOSITIONS THAT MODULATE IKZF2” (Plexium, Inc., priority 2021, published 2024) one finds EC50 and DC50 data, which are given here for 2 molecules.

Where two headings read alike, the source gives them in different places. A value given as a limit tells only on which side of the number the result lay.

The target of assay [1] is human E3 ligase component cereblon (CRBN) (Homo sapiens (Human), UniProt Q96SW2). Put plainly: Cereblon (CRBN) target engagement, NanoBRET TE Intracellular E3 Ligase Assay in transfected HEK-293T cells. The method, then:
HEK-293T cells were harvested ca. 75% confluent with trypsin and plated (500,000 cells/well) in a 6-well tissue culture plate in 2 mL of Dulbecco's Modified Eagle Medium (DMEM)^+10% Fetal Bovine Serum (FBS) and incubated overnight at 37° C.
The NanoLue-CRBN fusion vector (Nluc-CRBN; Promega) contains the coding region of human E3 ligase component cereblon (CRBN) fused to the C-terminus of the NanoLuc luciferase coding region. A mixture of 10 ng Nluc-CRBN and 990 ng DDB1 Expression Vector (Promega) was added to 125 μL Opti-Minimum Essential Medium (Opti-MEM™; Thermo Fisher) along with 2 μL P3000 reagent (Thermo Fisher) in a 1.5 mL epppendorf tube. This solution was added to Lipofectamine 3000 transfection reagent (5 μL; Thermo Fisher) in Opti-MEM (125 μL), mixed well, and incubated for 15 minutes at room temperature. The transfection mixture was added dropwise to cells and incubated overnight at 37° C., 5% CO2. Following transfection, cells were washed once with PBS, and trypsin (250 μL) was added and incubated 30-45 see to dislodge cells. Complete media (2 mL) was added to resuspend cells to form a single cell suspension. Cells were centrifuged at 320×g for 5 min at room temperature, the supernatant was removed, and the cell pellet resuspended in Opti-MEM (3 mL; wash step repeated ×2). After final resuspension in 5 mL Opti-MEM, cells were counted and resuspended at 200,000 cells/mL in Opti-MEM.
Cereblon target engagement was monitored by Bioluminescence Resonance Energy Transfer (BRET) in transfected HEK-293T cells using the NanoBRET TE Intracellular E3 Ligase Assay (Promega). Briefly, 384-well plates (white opaque plates, Corning 3574, low binding surface) were seeded with transfected HEK-293T cells (38 μl/well). 2 μL of 10 μM CRBN tracer (diluted 1:5 in Tracer Dilution Buffer) was added to each well. Plates were centrifuged at 320×g for 1 min at room temperature. […] Plates were shaken for 2 minutes on a microplate shaker to mix compounds. Plates were centrifuged at 320×g for 1 min at room temperature, and subsequently incubated for 2 hours at 37° C.
After incubation, plates were allowed to cool to room temperature for 15 minutes. 20 μL of 3X Complete NanoBRET™ Nano-Glo® Substrate plus Inhibitor Solution (Promega, 1:166 Substrate and 1:500 dilution of Extracellular NanoLuc® Inhibitor diluted in Opti-MEM) were added to each well, Plates were incubated with shaking at room temperature for 3 minutes covered with foil. Plates were read on a CLARIOstar microplate reader (BMG LabTech), measuring at 450 nm (donor emission) and 610 nm (acceptor emission). The IC50 values were determined by regression to best fit four-parameter logistic curves using GraphPad Prism.
For orientation: In BRET a luciferase serves as donor, and the signal depends on an acceptor being close.

The target of the next assay is IKZF1 (Ikaros) (Homo sapiens (Human), UniProt Q13422+Q96SW2). In words: IKZF1 reporter degradation assay (HEK 293T IKZF1-mNeonGreen reporter cell line). The note with it: HEK 293T reporter cells, 24 hour incubation. It is filed as cell-based. An excerpt: Polycistronic plasmids were constructed for the mammalian expression of fluorescent reporter fusions of human transcription factors IKZF1 (Ikaros), IKZF2 (Helios), and IKZF3 (Aiolos). The respective protein sequences had their C-terminal end joined to a GGGGS linker repeated three times followed by mNeonGreen, P2A sequence, and mScarlet. The DNA sequences of the open reading frames are as follows:
IKZF1, IKZF2, and IKZF3 constructs were cloned into the UCOE Hygromycin expression vectors (Millipore Sigma). Reporter constructs were transfected using cationic lipid reagents into adherent HEK 293T cells and stable integrants were selected by treatment with 200 μg/mL hygromycin B. Clonal populations were obtained from the population of stable integrants either by limiting dilution or fluorescence activated cell sorting.
The clonal stable cell lines were maintained under constant 200 μg/mL hygromycin B selection while being passaged for use in the degradation assays. […] The fluorescence intensity of the IKZF1/2/3-mNeonGreen (FITC channel) and mScarlet (PE channel) reporters were routinely analyzed by flow cytometry to confirm consistent expression levels between experiments.
The IKZF1/IKZF2/IKZF3 degradation assays were carried out by harvesting the HEK 293T reporter cell lines and resuspending the cells in media formulated for reduced background fluorescence (FluoroBrite; Thermo Fisher). The respective cell lines were seeded at a density of 4000 cells/well into black-walled 384-well optical grade assay tissue culture plates. The cells were incubated overnight at 37° C. to allow for attachment to the assay plate. Dilutions of the compounds were prepared in DMSO from 10 mM compound stocks. The assay plates were treated with appropriate concentrations of the compounds by dispensing the DMSO dilutions in quadruplicate wells with an upper limit of 0.5% final DMSO.
After 24 hour incubation with the compounds, the assay plates were imaged on an ImageXpress Pico microscopy system (cells maintained at 37° C. during imaging) to obtain the fluorescent readouts. The assay plates were imaged in the FITC and Tetramethylrhodamine (TRITC) channels to obtain the mNeonGreen fluorescence intensity (reporter degradation data) and mScarlet fluorescence intensity (for cell segmentation). 293T-IKZF1 and 293T-IKZF3 reporter cell lines were imaged with exposures of 500 milliseconds (ms) for both FITC and TRITC channels, while the 293T-IKZF2 reporter cell line was imaged with exposures of 1000 ms for FITC and 1250 ms for TRITC. The resulting data was analyzed with Cell Reporter Xpress software using the 2-channel cell scoring analysis with a “percent positive” readout. The TRITC channel was selected for the “nuclei” segmentation with a threshold of 20 while the FITC channel was selected for the “Marker 1” segmentation and a threshold of 100 for the IKZF and IKZF3 reporter lines. […] The minimum segmentation width was set to 6 micrometers and the maximum segmentation width was set to 15 micrometers for all cell lines. The DC50 calculations were determined by regression to best fit four-parameter logistic curves using GraphPad Prism.

[2] abbreviates: Table 3, 2 hours at 37° C., read-out: CRBN Binding EC50.
[3] abbreviates: second (untitled) table after Table 3, read-out: CRBN Binding EC50.

Chain of human E3 ligase component cereblon (CRBN) (Q96SW2 whole entry): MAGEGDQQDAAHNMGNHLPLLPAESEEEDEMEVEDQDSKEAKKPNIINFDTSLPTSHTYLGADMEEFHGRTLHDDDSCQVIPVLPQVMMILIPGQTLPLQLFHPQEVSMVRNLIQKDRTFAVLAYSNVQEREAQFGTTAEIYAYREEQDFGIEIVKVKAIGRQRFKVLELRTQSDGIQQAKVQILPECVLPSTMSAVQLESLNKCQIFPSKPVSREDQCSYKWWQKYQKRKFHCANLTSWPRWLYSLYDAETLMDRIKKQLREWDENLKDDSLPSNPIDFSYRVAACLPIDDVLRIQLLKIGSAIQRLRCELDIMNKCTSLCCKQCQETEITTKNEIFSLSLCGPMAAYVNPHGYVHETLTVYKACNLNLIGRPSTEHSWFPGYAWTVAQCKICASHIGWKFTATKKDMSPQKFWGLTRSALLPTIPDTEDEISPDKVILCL
Chain of human E3 ligase component cereblon (CRBN) (Q16531 whole entry partner): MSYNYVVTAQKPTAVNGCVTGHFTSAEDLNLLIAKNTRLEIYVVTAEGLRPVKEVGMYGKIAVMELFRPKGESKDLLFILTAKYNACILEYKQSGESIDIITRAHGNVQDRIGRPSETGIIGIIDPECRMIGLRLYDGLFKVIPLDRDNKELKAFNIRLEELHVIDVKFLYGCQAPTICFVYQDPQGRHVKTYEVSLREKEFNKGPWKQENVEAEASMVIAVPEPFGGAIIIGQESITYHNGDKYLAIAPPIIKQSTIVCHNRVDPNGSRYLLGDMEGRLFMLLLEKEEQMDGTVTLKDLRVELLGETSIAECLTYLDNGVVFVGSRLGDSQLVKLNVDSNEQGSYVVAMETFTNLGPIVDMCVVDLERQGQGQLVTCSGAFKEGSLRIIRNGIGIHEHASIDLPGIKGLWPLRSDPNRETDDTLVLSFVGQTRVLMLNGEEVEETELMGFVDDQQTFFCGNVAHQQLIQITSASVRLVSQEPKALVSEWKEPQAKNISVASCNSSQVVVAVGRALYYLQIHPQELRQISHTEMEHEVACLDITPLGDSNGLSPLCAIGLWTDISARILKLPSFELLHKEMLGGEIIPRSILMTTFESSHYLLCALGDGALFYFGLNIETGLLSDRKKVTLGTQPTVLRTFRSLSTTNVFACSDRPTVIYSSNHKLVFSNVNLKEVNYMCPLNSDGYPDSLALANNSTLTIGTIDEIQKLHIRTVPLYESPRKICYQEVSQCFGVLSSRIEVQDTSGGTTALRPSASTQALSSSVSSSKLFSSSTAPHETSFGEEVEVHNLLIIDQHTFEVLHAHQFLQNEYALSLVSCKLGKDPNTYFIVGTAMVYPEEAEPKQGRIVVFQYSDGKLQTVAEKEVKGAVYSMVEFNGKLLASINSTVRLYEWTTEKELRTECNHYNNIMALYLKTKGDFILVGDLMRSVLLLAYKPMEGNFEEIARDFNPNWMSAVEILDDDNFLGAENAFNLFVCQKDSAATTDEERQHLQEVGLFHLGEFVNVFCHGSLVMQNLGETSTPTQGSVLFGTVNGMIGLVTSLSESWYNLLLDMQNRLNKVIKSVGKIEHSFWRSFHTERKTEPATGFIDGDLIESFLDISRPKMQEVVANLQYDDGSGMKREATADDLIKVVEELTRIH
Chain of IKZF1 (Ikaros) (Q13422 whole entry, the tested form may be a part): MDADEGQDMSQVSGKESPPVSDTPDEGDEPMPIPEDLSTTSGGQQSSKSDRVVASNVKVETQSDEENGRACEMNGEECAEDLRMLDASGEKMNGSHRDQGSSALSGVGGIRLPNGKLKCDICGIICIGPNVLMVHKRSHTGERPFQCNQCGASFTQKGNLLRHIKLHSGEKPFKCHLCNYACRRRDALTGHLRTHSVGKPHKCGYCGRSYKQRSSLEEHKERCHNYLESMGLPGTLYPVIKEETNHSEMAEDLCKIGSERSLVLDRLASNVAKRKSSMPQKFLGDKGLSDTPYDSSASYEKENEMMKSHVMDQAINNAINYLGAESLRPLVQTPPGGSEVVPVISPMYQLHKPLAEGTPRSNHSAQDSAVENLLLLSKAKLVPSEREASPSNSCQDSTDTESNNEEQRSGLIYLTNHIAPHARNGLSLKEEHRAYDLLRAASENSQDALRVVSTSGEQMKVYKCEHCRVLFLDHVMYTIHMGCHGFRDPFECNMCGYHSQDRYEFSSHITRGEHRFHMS
Chain of IKZF1 (Ikaros) (Q96SW2 whole entry, the tested form may be a part): as the sequence (Q96SW2 whole entry) above
Chain of IKZF1 (Ikaros) (Q16531 whole entry partner, the tested form may be a part): as the sequence (Q16531 whole entry partner) above

A word on the EC50: it is the concentration needed to bring the measured effect to its halfway point. A word on the DC50: it is the concentration at which degradation of the target reaches its halfway point. A high value points to degradation only at high concentration. Consider `O=C1CCC(N2Cc3c(ccc(O[C@H]4CCCC[C@@H]4N4CC(C5CCC5)C4)c3F)C2=O)C(=O)N1` (stereo partly drawn) [Compound 25, 3-(5-(((1S,2S)-2-(3-cyclobutylazetidin-1-yl)cyclohexyl)oxy)-4-fluoro-1-oxoisoindolin-2-yl)piperidine-2,6-dione], for which the EC50 in assay [1] (setting [2]) and in assay [1] (setting [3]) was 28 nM in each case. In addition, the DC50 at IKZF1 (Ikaros) was > 30000 nM.

For the molecule `O=C1CCC(N2Cc3cc(O[C@H]4CCCC[C@@H]4N4CC(C5CCCC5)C4)ccc3C2=O)C(=O)N1` (stereo partly drawn) [Compound 6, 3-(5-(((1S,2S)-2-(3-cyclopentylazetidin-1-yl)cyclohexyl)oxy)-1-oxoisoindolin-2-yl)piperidine-2,6-dione], the EC50 in assay [1] (setting [2]) and in assay [1] (setting [3]) was 5 nM in each case. Also, the DC50 at IKZF1 (Ikaros) is > 30000 nM.
